This passage reports AC50 results from PubChem BioAssay AID463206 (Broad Institute, 2010).

This test relates to INS-1E cytokine-induced caspase-3/7, Caspase-Glo luminescence, 48 h. Put plainly: suppression of cytokine-driven beta-cell apoptosis – INS-1E rat cells, luminescence, orthogonal assay for beta-cell apoptosis protection project, dose response (AID 463206).

Calls of active or inactive are those of the source.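 How the source made its calls: active means caspase luminescence falls with dose and the half-maximal concentration AC50 from the fitted curve is at or below a set limit; inconclusive means flat fit at 30 to 70% signal loss, or invalid fit; inactive means AC50 above the limit, or signal rises instead.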

Regarding `N#C/C(=N\Nc1cccc([N+](=O)[O-])c1)C(=O)c1ccc(Br)cc1`, the AC50 (usually the concentration giving half of the maximal activity seen) was > 26 µM (inactive).
As for `O=C(Nc1nc(-c2ccccn2)cs1)c1ccc(F)c(S(=O)(=O)N2CCOCC2)c1`, the AC50 is > 26 µM (inactive).
Under `Cc1cc(N2CCCC2=O)cc(C)c1S(=O)(=O)NCCOc1ccc(C(C)(C)C)cc1` stands > 26 µM (inactive).
In the case of `C/C(N)=C(/C#N)C(=O)COC(=O)c1cc(-c2ccc(C)cc2)nc2ccccc12` it was > 26 µM (inactive); in that of `COc1ccc2cc(C(=O)N/N=C/c3sc4ccccc4c3O)ccc2c1`, > 26 µM (inactive); in that of `CC(C)(C)c1cc([N+](=O)[O-])cc(C(C)(C)C)c1O`, > 26 µM (inactive).
On to `CN(C)C(=O)c1ccc(NC(=O)c2cccc(S(=O)(=O)N3CCCCCC3)c2)cc1`, for which the AC50 was > 26 µM (inactive).
On to `COc1ccc(Br)cc1CN(C)CC(=O)NCc1ccc(F)cc1`, for which the AC50 is > 26 µM (inactive).
For the compound `CCN(CC)S(=O)(=O)c1ccc(N/N=C/c2cc(OC)ccc2O)nc1`, the AC50 is > 26 µM (inactive).
Under `CCN1CCN(C2=C(NS(=O)(=O)c3ccccc3)C(=O)c3ccccc3C2=O)CC1` stands > 26 µM (inactive).
In the case of `O=C1C(Nc2ccccc2)=C/C(=N/S(=O)(=O)c2cccs2)c2ccccc21`, the AC50 was > 26 µM (inactive).
In the case of `COc1ccc(Sc2nc(-c3ccccn3)ncc2OC)cc1` it was > 26 µM (inactive); in that of `CC(C)(C)c1ccc(-n2ncc3c2CCCC3NC(=O)C2(C(N)=O)CC2)cc1` (stereo not drawn), > 26 µM (inactive).
Under `O=C(Nc1ccc(C(F)(F)F)cc1)C1CCN(S(=O)(=O)c2ccc(N3CCCC3=O)cc2)CC1` stands > 26 µM (inactive); under `Cc1ccc2[nH]c(=O)c(C3C(C#N)=C(N)Oc4c3ccc3cccnc43)cc2c1` (stereo not drawn), > 26 µM (inactive); under `CN(C)S(=O)(=O)c1cccc(NC(=S)N/N=C/c2cc(Br)ccc2O)c1`, > 26 µM (inactive).
For `CN1N=C(C(C)(C)C)CSC1=Nc1ccccc1`, the AC50 is > 26 µM (inactive).
As for `O=c1c2ccccc2nc(COc2ccccc2)n1/N=C/c1ccc(O)cc1O`, the AC50 was > 26 µM (inactive).
In the case of `CCCCOc1cc(NCc2ccccc2)c2ncn(C(C)C)c2c1` it was > 26 µM (inactive); in that of `COc1cc(NC(=O)c2[nH]cnc2C(N)=O)cc(C(=O)Nc2cccc(C(F)(F)F)c2)c1`, > 26 µM (inactive).
Take `CCCNC(=O)c1ccc2c(=O)c(O)c(-c3ccc(Cl)c([N+](=O)[O-])c3)[nH]c2c1`: the AC50 is 3.22 µM.
Turning to `c1ccc(-[n+]2nc(Nc3cccc4ccccc34)sc2-c2c3ccccc3cc3ccccc23)cc1`, the AC50 is > 26 µM (inactive).
As for `O=C(c1ccc(-c2ccc(Cl)cc2)o1)N1CCN(c2ccc([N+](=O)[O-])cc2Cl)CC1`, the AC50 is > 26 µM (inactive).
Under `O=C(N/N=C/c1cc([N+](=O)[O-])ccc1O)c1cc(-c2ccccc2)nc2ccccc12` stands > 26 µM (inactive).
Under `CCc1cc(SC#N)cc(C)c1NC(=O)CCl` stands > 26 µM (inactive).
Under `Cc1[nH]n(-c2ccccc2)c(=O)c1/C=N\NC(=O)C1COc2ccccc2O1` (stereo not drawn) stands > 26 µM (inactive).
Turning to `COc1cc(SC)ccc1C(=O)Nc1nc2ccccc2[nH]1`, the AC50 was > 26 µM (inactive).
On to `COc1ccc(-c2cc3ccccc3oc2=O)cc1NC(=O)c1ccc([N+](=O)[O-])o1`, for which the AC50 is > 26 µM (inactive).
On to `CC1=NN(c2nc3ccccc3[nH]2)C(=O)/C1=C/N(C)C`, for which the AC50 was > 26 µM (inactive).
Consider `Cc1cc(C)c(C)c(S(=O)(=O)N2CCN(c3ncnc4ccccc34)CC2)c1C`, for which the AC50 was > 26 µM (inactive).
In the case of `COc1cc(CNCCO)cc(Cl)c1OCc1ccc(Cl)cc1Cl`, the AC50 is > 26 µM (inactive).
In the case of `Oc1ccc(N=Nc2ccccc2C(F)(F)F)c2cccnc12` it was > 26 µM (inactive); in that of `O=C([O-])c1cc(-c2ccccc2)cc(-c2ccccc2)[n+]1Cc1ccccc1`, > 26 µM (inactive).
In the case of `O=C(CNc1ccc(F)cc1)N/N=C/c1c(O)ccc2ccccc12` it was > 26 µM (inactive); in that of `CC1C/C(=C/c2ccncc2)C(=O)/C(=C/c2ccncc2)C1` (stereo not drawn), > 26 µM (inactive).
`N#Cc1ccc(NC(=O)Nc2ccc(Cl)cc2)cc1`: the AC50 was > 26 µM (inactive).
For `O=C1C(Cl)=C(NCCN2CCCCC2)C(=O)c2ccccc21`, the AC50 was > 26 µM (inactive).
In the case of `C/C(=N\NC(=O)Cc1ccc(Cl)cc1)c1ccccn1` it was > 26 µM (inactive); in that of `CC1(C)CC(N2CCN(c3ccccc3)CC2)=CC(=[N+]2CCCC2)C1`, > 26 µM (inactive); in that of `COc1cc2nc(N3CCN(c4cc(C)ccc4C)CC3)nc(N)c2cc1OC`, > 26 µM (inactive).
As to `Cc1ccc(S(=O)(=O)c2ccc([N+](=O)[O-])cn2)cc1`, the AC50 is > 26 µM (inactive).
Under `O=C(NCCCn1ccnc1)c1ccc(-c2ccccc2)cc1` stands > 26 µM (inactive); under `O=C(N/N=C/c1cc(Cl)ccc1O)c1ccc(Br)cc1`, > 26 µM (inactive).
Under `Cc1ccc([N+](=O)[O-])cc1N(CC(=O)Nc1ccc(S(=O)(=O)Nc2cccc(C(F)(F)F)c2)cc1)S(C)(=O)=O` stands > 26 µM (inactive); under `COc1ccc(/C=N/Nc2cc(C)nc(-n3nc(C)cc3C)n2)cc1`, > 26 µM (inactive).
Under `O=C(CN(Cc1ccco1)Cc1ccco1)Nc1cc(S(=O)(=O)N2CCCCC2)ccc1Cl` stands > 26 µM (inactive).
For `COc1cc(N/N=C/c2ccccc2O)ncn1`, the AC50 is > 26 µM (inactive).
Under `COc1ccc(C2=NNC(=Nc3cc(S(=O)(=O)N(C)C)ccc3C)SC2)c(OC)c1` stands 24.8 µM; under `C/C(=N\NC(=O)c1c(C)nc2ccccn12)c1ccc(O)cc1O`, > 26 µM (inactive); under `Cc1[nH]n(-c2ccccc2)c(=O)c1/C=N/Nc1nncc(-c2ccccc2)n1`, > 26 µM (inactive).
In the case of `Cc1ccc(NC(=O)c2cc(S(=O)(=O)NCCC3=CCCCC3)ccc2F)cc1` it was > 26 µM (inactive).
In the case of `Cc1ccc(C(C)C)c(OCc2nn(CC(=O)c3ccc(OC(F)F)cc3)c3[n+]2CCCCC3)c1` it was > 26 µM (inactive); in that of `Cc1ccccc1CS(=O)(=O)c1nnc([C@H](Cc2ccccc2)NC(=O)OC(C)(C)C)o1`, > 26 µM (inactive); in that of `COc1ccc(O)c(/C=N/Nc2nc(Nc3ccccc3)nc(-n3nc(C)cc3C)n2)c1`, > 26 µM (inactive).
`C/C(=N\NC(=O)COc1ccccc1-c1ccccc1)c1ccc(O)cc1O`: the AC50 was > 26 µM (inactive).
In the case of `O=C(C(Cl)Cl)N1c2ccccc2OCC1c1ccccc1` (stereo not drawn) it was > 26 µM (inactive).
In the case of `Cc1cc(C)c(OCC(O)CNC(C)(C)C)c(C)c1` (stereo not drawn) it was > 26 µM (inactive); in that of `FC(F)(F)c1cnc(NNC(=S)Nc2ccc(Cl)cc2)c(Cl)c1`, > 26 µM (inactive); in that of `O=C(NCc1cccnc1)/C(=C/c1ccc(-c2cccc(Cl)c2)o1)S(=O)(=O)c1ccccc1`, > 26 µM (inactive).
Regarding `COc1ccc2c(c1OC)C(=O)OC2Nc1nc(-c2ccccc2)cs1` (stereo not drawn), the AC50 was 16.1 µM.
In the case of `COc1ccc(C)cc1Nc1n[n+](-c2ccccc2)c(-c2ccc(OC)c(OC)c2OC)s1` it was > 26 µM (inactive); in that of `COc1ccccc1N1CCN(c2ncc(C(=O)N3CCN(c4cccc(Cl)c4)CC3)c3ccccc23)CC1`, > 26 µM (inactive); in that of `CCCCCCOc1ccc(CN2CCN(C)CC2)cc1`, > 26 µM (inactive).
In the case of `CCN(CC)c1ccc(/C=N/NC(=S)NCc2ccccc2)c(O)c1` it was > 26 µM (inactive).
In the case of `CCOc1cc(S(=O)(=O)NCc2ccncc2)ccc1Cl`, the AC50 is > 26 µM (inactive).
Under `Clc1ccc2c(N/N=C/c3cccc(Br)c3)ccnc2c1` stands > 26 µM (inactive); under `O=[N+]([O-])c1ccc(O)c(-c2cc(C(F)(F)F)nc(-c3ccccc3)n2)c1`, > 26 µM (inactive).
Consider `Cc1ccc(C(=O)NC2CCCc3c2cnn3-c2ccc(F)cc2F)cn1` (stereo not drawn), for which the AC50 is > 26 µM (inactive).
Take `CCn1c(=O)c([N+](=O)[O-])c(Cl)c2ccccc21`: the AC50 is > 26 µM (inactive).
For the compound `O=C(Nc1nc2ccccc2[nH]1)c1ccccc1F`, the AC50 was > 26 µM (inactive).
In the case of `COc1ccc(C(=O)c2c(C(F)(F)F)oc3c2C(=O)c2ccccc2C3=O)cc1` it was > 26 µM (inactive); in that of `COC(=O)C1=C(C)N(Cc2ccccc2)C(=NCc2cccc(Cl)c2)N[C@H]1c1cccc(F)c1`, > 26 µM (inactive); in that of `CC1(C)N=C(N)N=C(N)N1c1ccc(OCCCOc2ccccc2)c(Cl)c1`, > 26 µM (inactive).
As for `Cc1ccc(C)c(NS(=O)(=O)c2ccc(OCC(=O)NCc3cccnc3)cc2)c1`, the AC50 was > 26 µM (inactive).
Regarding `CCc1ccc(C2=NNC(=Nc3cccc(S(=O)(=O)N(C)C)c3)SC2)cc1`, the AC50 is > 26 µM (inactive).
Under `Cc1cccc2sc(NNC(=O)c3ccc(S(=O)(=O)N4CCCC(C)C4)cc3)nc12` (stereo not drawn) stands > 26 µM (inactive).
Under `O=C(CN1CC[n+]2c(-c3cccs3)csc21)c1ccc(-c2ccccc2)cc1` stands > 26 µM (inactive); under `CC(C)(C)OC(=O)NCc1ccc(NC(=O)c2nc[nH]c2C(=O)NCCNC(=O)c2[nH]cnc2C(=O)Nc2ccc(CNC(=O)OC(C)(C)C)cc2)cc1`, > 26 µM (inactive).
In the case of `CC(C)(C)c1cnnn1-c1ccc(/C=N/Nc2ccc([N+](=O)[O-])cc2)cc1` it was > 26 µM (inactive); in that of `CCN1/C(=C/C=C/c2oc3ccc(-c4ccccc4)cc3[n+]2CC)Oc2ccc(-c3ccccc3)cc21`, > 26 µM (inactive); in that of `CCCCCc1cc(=O)oc2c(C(CCN(CC)CC)c3ccc(OC)cc3)c(OC)cc(OC)c12` (stereo not drawn), 23.2 µM.
Take `Cc1ccc(NC(=O)C(C)Sc2nnc(C)n2C2CC2)cc1S(=O)(=O)N1CCOCC1` (stereo not drawn): the AC50 was > 26 µM (inactive).
In the case of `C=CCn1c(=NC(=O)c2cc(-c3cccs3)nc3ccccc23)sc2cc(S(N)(=O)=O)ccc21` it was > 26 µM (inactive).
